Experimental findings from patent US4442218A, “Method of measuring degree of partitioning” (Corning Glass Works, priority 1981, dated 1984) are described below.

Read-outs that look alike come from different tables or passages of the source.

Experiment [1] has as its target thyroxine antibodies immobilized within the pores of stainless steel disc-shaped monoliths. Description: Scatchard plot evaluation of binding constant, stainless steel disc-shaped monoliths. Set-up: species or system rabbit. To be noted: total liquid volume 0.5 ml; disc-shaped monolith, 0.5 mg protein per monolith; read-out: binding constant K (Scatchard plot). The procedure: The procedure of Example 1 was repeated, except that the cylindrical monoliths were replaced with 316 stainless steel discs 8 mm in diameter and 1.6 mm in thickness and the amount of protein per monolith was increased to 0.5 mg. Mean pore diameters were about 40μ and the total surface area of each disc was about 60 cm^2. In a random sampling of 10 discs, the average weight per disc was 0.330 g with a coefficient of variation of 0.3 percent. The discs were obtained as Stock No. S-2298 from Sintered Specialties, Janesville, Wisc. The Scatchard plot data were obtained using a total liquid volume of 0.5 ml per tube and serial dilutions of I^125 -labeled thyroxine from about 500,000 cpm to about 25,000 cpm.

For experiment [2], the target named is thyroxine antibodies immobilized within the pores of stainless steel cylindrical monoliths. The experiment can be described thus: Scatchard plot evaluation of binding constant, stainless steel cylindrical monoliths. To be noted: ambient temperature, overnight, shaking, cylindrical monolith, read-out: binding constant K (slope of Scatchard plot) (converted). Set-up: species or system rabbit. The procedure:
The treated monoliths were combined with 3.0 ml of a stock solution (prepared as described below) of an immunoglobulin-enriched fraction of an antithyroxine antiserum per 100 g of monoliths dissolved in sufficient 0.1 M phosphate buffer solution (PBS) at pH 7.0 to insure complete submersion of the monoliths (the 3.0 ml of stock solution was equivalent to 0.3 mg of protein per monolith). A water aspirator vacuum was applied to the resulting mixture for a time sufficient to insure complete penetration of the liquid phase into the pores of the monoliths. The mixture then was maintained at 4° on a reciprocating shake table (Eberbach Corporation, Ann Arbor, Mich.) for 48 hours. […] If the bound and free antigen can be separated and the quantity bound measured, then the value of K can be determined by constructing a Scatchard plot; see, e.g., E. D. Day, "Advanced Immunochemistry", Williams & Wilkens Co., Baltimore, Md., 1972, pp. 118ff. Such a procedure is particularly suited to solid-phase immunoassay systems since the bound antigen is readily separated from the free or unbound antigen. The value of K for the monolith-thyroxine antibody complex was determined as follows. […] (3) Each tube was counted for one minute to obtain total counts. […]

`N[C@@H](Cc1cc(I)c(Oc2cc(I)c(O)c(I)c2)c(I)c1)C(=O)O` [thyroxine]: the Kd was 1 nM in experiment [1], 0.175 nM in experiment [2] (total reaction volume 0.5 ml) and 0.167 nM in experiment [2] (total reaction volume 1.0 ml).
